Measured values reported in US20030008913A1, “Derivatives of 2,2-dimethyl 3(2-fluoro vinyl) cyclopropane carboxylic acid, their preparation process and their use as pesticides” (priority 1997, published 2003).

System: Blattela
Test: Knockdown-effect against Blattela in a windtunnel (comparative example)
Type: in vivo
Conditions: Rate 0.003% w/v in 80% OPD 120 acetone mixture
Method: The knockdown-effect at 30 seconds and 2 minutes of the compounds of Examples 14, 27, 43 and lmiprothrin, a commercially used pyrethroid, against Blattela was assessed.
The tests were carried out in a windtunnel. The active ingredient was diluted to 0.003% w/v in an 80% OPD 120 acetone mixture. Controls (i.e., sprayed with the carrier liquid alone) were inserted at the beginning of the test, and twice at the end.

## C#CCN1CC(=O)N(COC(=O)[C@@H]2C(C=C(C)C)C2(C)C)C1=O (mixture of isomers) [Imiprothrin]
30 sec.
  knockdown-effect at 30 sec.: 0%
2 min
  knockdown-effect at 2 min: 10%
